Measured values reported in patent US11452723B2, “Combination dosage form of a mu opioid receptor antagonist and an opioid agent” (THERAVANCE BIOPHARMA R&D IP, LLC, priority 2015, dated 2022).
Structures can show the parent of a compound that is named as a salt.

Key:
[1] = as described in U.S. Pat. No. 7,943,772; cited from earlier work
[2] = Excipient compatibility study: chemical stability of films at 40° C./88% RH by HPLC; format: physicochemical; conditions: T = 0; no coating material (ratio N/A)
Experimental: The compatibility of axelopran with four compositions of commercial coating materials was studied as a function of ratio of coating material to axelopran. Mixtures of axelopran sulfate and the materials of Table 15 were dried at 40° C. in weighing boats to form films. Chemical stability of the films stored at accelerated conditions of 40° C. and 88% relative humidity for 2 weeks were analyzed by HPLC.

mu opioid receptor = biological target: T1, mu opioid receptor (Homo sapiens, UniProt P35372); conditions: non-cancer pain patients on a stable opioid regimen; cited from earlier work
T1 construct: host or cells: patients (endogenous peripheral/gastrointestinal receptors)
T1 sequence (P35372 whole entry): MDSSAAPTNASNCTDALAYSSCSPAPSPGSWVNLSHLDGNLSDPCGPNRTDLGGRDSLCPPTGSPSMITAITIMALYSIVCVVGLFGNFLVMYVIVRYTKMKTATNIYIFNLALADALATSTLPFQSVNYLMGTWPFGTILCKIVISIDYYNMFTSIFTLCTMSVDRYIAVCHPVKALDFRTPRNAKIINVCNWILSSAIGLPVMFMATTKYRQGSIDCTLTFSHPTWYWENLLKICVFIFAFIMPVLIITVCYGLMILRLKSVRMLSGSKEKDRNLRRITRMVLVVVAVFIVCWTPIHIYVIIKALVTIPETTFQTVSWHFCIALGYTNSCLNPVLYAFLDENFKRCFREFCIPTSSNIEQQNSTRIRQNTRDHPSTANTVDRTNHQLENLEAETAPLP

Compound | stability of solid form (in words) [1] | Axelopran Assay [2] [% Area] | amelioration of symptoms of opioid induced constipation (in words) (mu opioid receptor)
NC(=O)c1cccc([C@H]2C[C@H]3CC[C@@H](C2)N3CCN(CC2CCCCC2)C(=O)[C@@H](O)CO)c1 [amorphous axelopran] | not sufficiently stable for use in a drug product |  | 
NC(=O)c1cccc([C@H]2C[C@H]3CC[C@@H](C2)N3CCN(CC2CCCCC2)C(=O)[C@@H](O)CO)c1 [axelopran, 3-((1R,3r,5S)-8-(2-((cyclohexylmethyl)((2S)-2,3-dihydroxypropanoyl)amino)ethyl)-8-azabicyclo[3.2.1]octan-3-yl)benzamide] |  | 99.70 | ameliorate the symptoms of OIC in non-cancer pain patients on a stable opioid regimen without compromising analgesia
NC(=O)c1cccc([C@H]2C[C@H]3CC[C@@H](C2)N3CCN(CC2CCCCC2)C(=O)[C@@H](O)CO)c1 [axelopran sulfate] | forms a stable crystalline form |  | 
